In PMC10222646 (Microorganisms, 2023):

Tests used:
[1] = tested on: Anopheles gambiae mosquitoes; assay: Mosquito mortality observed in SMFA (insecticidal activity); settings: AST in blood meal
[2] = biological target: T1, P. falciparum GS-I (PfGS-I) (Plasmodium falciparum, UniProt W7JM41); assay: Glutamine synthetase assay, purified MBP-fused PfGS-I (Glutamine/Glutamate-GLO); type: biochemical, Plasmodium falciparum NF54
T1 sequence (W7JM41 1-544): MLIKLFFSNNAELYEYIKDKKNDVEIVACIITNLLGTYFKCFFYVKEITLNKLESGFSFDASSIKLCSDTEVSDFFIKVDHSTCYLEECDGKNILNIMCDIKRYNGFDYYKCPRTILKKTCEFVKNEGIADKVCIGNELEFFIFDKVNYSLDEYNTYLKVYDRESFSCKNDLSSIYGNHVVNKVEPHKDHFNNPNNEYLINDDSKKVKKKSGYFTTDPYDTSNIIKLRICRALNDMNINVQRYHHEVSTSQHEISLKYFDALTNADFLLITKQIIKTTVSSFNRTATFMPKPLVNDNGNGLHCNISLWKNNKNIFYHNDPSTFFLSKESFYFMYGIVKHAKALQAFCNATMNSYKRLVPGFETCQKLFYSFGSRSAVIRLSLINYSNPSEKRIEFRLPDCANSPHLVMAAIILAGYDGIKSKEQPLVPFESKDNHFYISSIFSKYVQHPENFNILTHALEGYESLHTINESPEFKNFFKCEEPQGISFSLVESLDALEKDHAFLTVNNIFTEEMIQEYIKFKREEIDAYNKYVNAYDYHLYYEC

[3] = tested on: P. falciparum transmission to Anopheles gambiae mosquitoes; assay: Transmission-blocking standard membrane feeding assay (SMFA), oocysts in mosquito midguts; type: in vivo, Plasmodium falciparum NF54; settings: for Mean oocyst number per midgut: control 2.6; for Infect(%) percentage of infected mosquitoes: control 60
human GS-II (hGS-II) = biological target: T2, human GS-II (hGS-II) (Homo sapiens, UniProt P15104); assay: Glutamine synthetase assay, human GS-II (Glutamine/Glutamate-GLO); type: biochemical; settings: 1 µM AST, 30 min, Figure 2b
T2 construct: purchased BioVision Inc., Milpitas, CA, USA
Protocol: The activity and inhibition profiles of purified MBP-fused PfGS-I or human GS-II (hGS-II) (BioVision Inc., Milpitas, CA, USA) in the presence or absence of AST were estimated from glutamine production using Glutamine/Glutamate-GLO^TM Assay Kit (Promega, Madison, WI, USA). The assay mixture (50 mM imidazole-HCl buffer (pH 7.0), 7.6 mM ATP, 50 mM magnesium chloride, 50 mM ammonium chloride) with or without the indicated concentration of GS enzyme was preincubated in the presence or absence of the indicated concentrations of AST for 15 min at room temperature. The reaction was initiated through the addition of L-glutamate at 0.1 mM, the final concentration. The reaction mixtures were incubated at 37 °C with shaking at 300 rpm for the indicated time. The reactions were terminated by chilling the reaction mixture in ice water and filtered with 30 kDa Amicon Ultra centrifugal filters at 4 °C. Glutamate concentrations in the filtered samples were determined using a Glutamine/Glutamate-GLO^TM Assay as instructed in the kit’s manual, from which glutamine concentrations were estimated by subtracting the glutamate concentrations from the initial concentrations (0.1 mM). The EC50 (half maximal effective concentration) of AST for PfGS-I was calculated using Sigma Plot (Systat Software, Inc., Sun Jose, CA, USA).

[4] = tested on: asexual-stage P. falciparum; assay: Antimalarial activity on asexual-stage P. falciparum in human blood (parasitemia, Giemsa smears); type: cell-based, Plasmodium falciparum NF54; settings: day 4, 0.5% starting parasitemia, 2% hematocrit; read-out: EC50 for inhibition of the asexual-stage P. falciparum (parasitemia rates)
Protocol: 3–5-day cultured P. falciparum-infected red blood cells (iRBCs) were mixed with fresh human red blood cells (RBCs) (AB+ type) in complete RPMI 1640 to prepare cultures with 0.5% parasitemia and 2% hematocrit. AST was dissolved in dimethyl sulfoxide (DMSO). Then, 5 μL DMSO with AST at concentrations of 0, 0.5, 1, 2, 4, and 8 mM were added to the 0.5 mL iRBCs in a 48-well plate, yielding final concentrations of 5, 10, 20, 40, and 80 µM, respectively. The plate was incubated in a candle jar at 37 °C. Approximately 48 h later, the medium was replaced with fresh medium containing the same concentration of AST. Parasitemia was recorded via microscopic evaluation of Giemsa-stained blood smears on day 4 post-incubation.

[5] = tested on: human cell lines (HepG2, HEK293, Caco-2, THP-1, macrophage)
[6] = tested on: macrophage-like cells differentiated from THP-1

T2 sequence (P15104 whole entry): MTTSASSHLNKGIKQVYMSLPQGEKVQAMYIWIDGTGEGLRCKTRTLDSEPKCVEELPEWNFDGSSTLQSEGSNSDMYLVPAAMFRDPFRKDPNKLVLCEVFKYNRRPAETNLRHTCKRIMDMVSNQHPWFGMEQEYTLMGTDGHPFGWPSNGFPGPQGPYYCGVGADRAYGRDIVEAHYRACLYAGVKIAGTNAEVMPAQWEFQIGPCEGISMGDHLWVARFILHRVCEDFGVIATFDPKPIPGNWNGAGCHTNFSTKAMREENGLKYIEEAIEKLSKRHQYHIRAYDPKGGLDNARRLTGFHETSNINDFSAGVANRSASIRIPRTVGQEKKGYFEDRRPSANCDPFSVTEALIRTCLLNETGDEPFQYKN

Compound: C[As](=O)(O)CC[C@H](N)C(=O)O [AST, 2-amino-4-(hydroxymethylarsinoyl)butanoate]
- insecticidal activity (dead mosquitoes) [1]: no dead mosquitoes were observed
- EC50 [2]: 0.4 µM
- activity of PfGS-I compared with the control without AST treatment ([2]; 1 µM AST, PfGS-I 1 µM, 30 min, Figure 2b): less than 40%
- inhibition of PfGS-I activity ([2]; AST at 100 µM, Figure 2c): completely inhibited
- inhibition of malaria transmission ([3]; 3 µM AST, SMFA): completely inhibited
- EC50 ([3]; SMFA, day 7 post-infection, read-out: EC50 in blocking the transmission of the sexual-stage P. falciparum to mosquitos (oocysts per mosquito)): 0.34 µM
- Mean oocyst number per midgut ([3]; [AST] 0.1 μM): 2.8
- Infect(%) percentage of infected mosquitoes ([3]; [AST] 0.1 μM): 59.6%
- Mean oocyst number per midgut ([3]; [AST] 0.3 μM): 1.4
- Infect(%) percentage of infected mosquitoes ([3]; [AST] 0.3 μM): 36.8%
- Mean oocyst number per midgut ([3]; [AST] 1 μM): 0.25
- Infect(%) percentage of infected mosquitoes ([3]; [AST] 1 μM): 20%
- Mean oocyst number per midgut ([3]; [AST] 3 μM): 0
- Infect(%) percentage of infected mosquitoes ([3]; [AST] 3 μM): 0%
- Mean oocyst number per midgut ([3]; [AST] 30 μM): 0
- Infect(%) percentage of infected mosquitoes ([3]; [AST] 30 μM): 0%
- CC50 (HepG2): > 250 µM
- CC50 (HEK293): > 250 µM
- cytotoxicity relative to As(III) (times less cytotoxic) (HEK293): > 10 times
- effect on activity of hGS-II (human GS-II (hGS-II)): did not significantly reduce
- CC50 (Caco-2): 150 to 200 µM
- EC50 [4]: 13.9 µM
- permeability (total cellular arsenic levels) [5]: permeable
- CC50 [6]: > 250 µM
- CC50 (THP-1): > 250 µM
